Literature values as cited in EP1677774B1, “CITICOLINE-BASED COMPOSITION IN COMBINATION WITH VITAMINS FOR THE PREVENTION AND TREATMENT OF EYE PATHOLOGIES” (Bausch & Lomb IOM S.p.A., priority 2003, dated 2005).

Key:
glaucomatous patients = conditions: intramuscular administration

## C[N+](C)(C)CCOP(=O)(O)OP(=O)([O-])OC[C@H]1O[C@@H](n2ccc(N)nc2=O)[C@H](O)[C@@H]1O [CDP-choline, cytidine-5'-diphosphocholine]
Glaucomatous patients; long-term clinical studies
  effect on the optic nerve (perimetric measures): positive effect on the damaged optic nerve
Glaucomatous patients; short-term clinical study
  retinal and supraretinal signal conduction: functional improvement
Intravenous or oral administration
  metabolic fate after administration: immediately hydrolysed and converted into the two circulating metabolites cytidine and choline
Oral compared with intravenous administration
  calculated bioavailability for oral administration: virtually the same as the one calculated for intravenous administration
